Data as given in US6265423A, “Aromatic polycyclic retinoid-type derivatives, method for preparing same, and use thereof for making pharmaceutical and cosmetic compositions” (priority 1996, dated 2001).
“Also recorded” adds a separate entry of the source. Read-outs that look alike come from different tables or passages of the source.

Assays:
[1] = tested on: A549 human pulmonary cancer cells; assay: MTT test, proliferation of A549; type: cell-based; conditions: for activity at 100 µM / activity at 1 µM / activity at 0.01 µM: Homo sapiens, read-out: level of proliferation; for effect on cellular increase, A549 (in words): MTT test
[2] = tested on: ZR-75-1 human mammary cancer cells; assay: MTT test, proliferation of ZR-75-1; type: cell-based; conditions: for activity at 100 µM / activity at 1 µM / activity at 0.01 µM: Homo sapiens, read-out: level of proliferation; for effect on cellular increase, ZR-75-1 (in words): MTT test
How it was run: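 After 24 h seeding, cells in MEM with 5% decomplemented FCS at 37° C were exposed to compound at 10^-8 M, 10^-6 M and 10^-4 M. Viability was assessed by MTT reduction to formazan, dissolved in DMSO. Mean optical density is expressed as % of untreated control (100%), in 6 duplicates.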

[3] = tested on: T-47D cells; assay: Effect on oestrogen-induced proliferation of T-47D cells; type: cell-based, human; conditions: for activity at 1 µM: 10^-6 M, 100% = E2 10^-9 M, read-out: growth of T-47D cells
[4] = tested on: ERE-βGlob-Luc, MELN lineage (MCF-7); assay: Anti-oestrogenic effect, MELN lineage activated by estradiol; type: cell-based, human; conditions: for inhibition: 10^-6 M; for anti-oestrogenic effect (in words): estradiol-activated MELN cells
How it was run: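 MCF-7-derived MELN cells stably carry luciferase driven by chicken vitellogenin A2 ERE and βGlobin promoter; stimulated with 10^-9 M estradiol, run in duplicate. Basal activity is set with 1 μM 4-OH-tamoxifen and subtracted. Effect expressed as percentage.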

[5] = tested on: AP-1, MTLN lineage (MCF-7); assay: Anti-AP-1 effect, MTLN lineage activated by TPA; type: cell-based, human; conditions: for inhibition at 1 µM / inhibition at 0.1 µM / inhibition at 0.01 µM: Homo sapiens; for inhibition at 1 µM: 10^-6 M; for anti-AP-1 effect (in words): TPA-activated MTLN cells
How it was run: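 MCF-7-derived MTLN cells stably carrying a p(TRE)3-tk-Luc reporter, activated with 10^-7 M TPA, run in duplicate. Luciferase inhibition by compounds given as percentage after subtracting basal cell activity, reported as a range from several experiments.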

[6] = A549, 10^-4 M, 72 h, control = 100%
[7] = A549, 10^-6 M, 72 h, control = 100%
[8] = A549, 10^-8 M, 72 h, control = 100%
[9] = ZR-75-1, 10^-4 M, 72 h, control = 100%
[10] = ZR-75-1, 10^-6 M, 72 h, control = 100%
[11] = ZR-75-1, 10^-8 M, 72 h, control = 100%
[12] = Homo sapiens, T47D, 168 h, 7 days
[13] = Homo sapiens, MCF7, cells activated by 10^-9 M estradiol
[14] = Homo sapiens, MCF7, 10^-7 M, cells activated by 10^-9 M estradiol, read-out: anti-oestrogenic effect, inhibition
[15] = MCF7, cells activated by 10^-7 M TPA, range of several experiments
[16] = MCF7, 10^-7 M, cells activated by 10^-7 M TPA, range of several experiments, read-out: anti-AP-1 effect, inhibition
[17] = Homo sapiens, MCF7, read-out: anti-oestrogenic effect, inhibition
[18] = MCF7, read-out: anti-AP-1 effect, inhibition
[19] = Homo sapiens, MCF7, 10^-8 M, cells activated by 10^-9 M estradiol, read-out: anti-oestrogenic effect, inhibition

Structure (SMILES)	activity at 100 µM [1, 6]	activity at 1 µM [1, 7]	activity at 0.01 µM [1, 8]	activity at 100 µM [2, 9]	activity at 1 µM [2, 10]	activity at 0.01 µM [2, 11]	activity at 1 µM [3, 12]	inhibition [4, 13]	inhibition at 0.1 µM [4, 14]	anti-oestrogenic effect (in words) [4]	inhibition at 1 µM [5, 15]	inhibition at 0.1 µM [5, 16]	anti-AP-1 effect (in words) [5]	inhibition at 0.1 µM [4, 17]	inhibition at 0.1 µM [5, 18]	effect on cellular increase, ZR-75-1 (in words) [2]	inhibition at 0.01 µM [5, 18]	effect on cellular increase, A549 (in words) [1]	other results
CC1(C)CCC(C)(C)c2cc(/C=C(\c3ccc(C(=O)O)cc3)C(F)(F)F)ccc21 [CB36493, (E) 4-[1-trifluoromethyl-2-(5,6,7,8-tetrahydro-5,5,8,8-tetramethyl-2-naphthalenyl)-1-ethenyl]benzoic acid]	10.4%	93.7%	98.5%	8.6%	108%	108%	68 to 78%	17 to 32%	0%	permit a transrepression of a controlled gene by an ERE	38 to 46%	26%	exert an inhibitor effect comparable to that of the effect of CB28628	–	–	–	–	–	–
C/C(=C/c1ccc2c(c1)C(C)(C)CCC2(C)C)c1ccc(C(=O)O)cc1 [CB28628, reference compound]	12.4%	93.4%	109%	19.4%	83.5%	80.8%	33%	29 to 41%	31%	–	58%	40%	exhibits a strong anti-AP-1 effect on the MCF-7 cells	–	–	–	–	–	inhibition of growth (of the order of) ([3]; estradiol 10^-9 M, 7 days): ~70%
Cc1cc2c(cc1C(=O)c1ccc(C(=O)O)cc1)C(C)(C)CCC2(C)C [LGD-CB14499, reference compound]	–	–	–	–	–	–	–	–	–	inactive	–	–	causes an inhibition of the AP-1 route	0%	17 to 30%	–	–	–	activity at 0.01 µM ([2]; ZR-75-1, 72 h): 107%; activity at 1 µM ([2]; ZR-75-1, 72 h): 104%; activity at 100 µM ([2]; ZR-75-1, 72 h): 42.4%; inhibition at 1 µM [4, 17]: 0%
CC(C=C/C=C(C)\C=C\C1=C(C)CCCC1(C)C)=CC(=O)O [CB13407, 9-cis retinoic acid, reference compound]	–	–	–	39.2%	130%	137%	–	–	–	–	–	–	–	35%	–	stimulates the cellular increase at 10^-6 M and 10^-8 M	30 to 37%	–	activity at 0.01 µM ([1]; A549, 72 h): 104%; activity at 1 µM ([1]; A549, 72 h): 102%; activity at 100 µM ([1]; A549, 72 h): 38%; IC50 ([3]; Homo sapiens, T47D, 168 h, read-out: anti-proliferation effect, T-47D IC50): 25.1 ± 1.4 nM
C/C(=C\c1cc2c(cc1C)C(C)(C)CCC2(C)C)c1ccc(C(=O)O)cc1 [CB71802]	12.5%	86.3%	80.9%	7.8%	96%	101%	–	32 to 48%	37%	–	–	–	–	–	–	–	–	inhibits the increase of these two pulmonary lineages the most strongly	inhibition at 1 µM ([3]; Homo sapiens, T47D, 168 h, 1 μM (10^-6 M), 7 days, estradiol 10^-9 M, read-out: percentage inhibition of growth, T-47D): 72%; inhibition at 0.01 µM [4, 19]: 5%
C/C(=C\c1ccc2c(c1)C(C)(C)CCC2(C)C)c1ccc(C(=O)Nc2nnn[nH]2)cc1 [CB73364]	0%	151%	156%	0%	101%	119%	–	20 to 41%	24%	–	–	–	–	–	–	–	–	a stimulation of the cellular increase	effect on oestrogen-induced growth, T-47D (in words) ([3]; estradiol 10^-9 M): exerts an effect comparable to TTNPB; inhibition at 0.01 µM [4, 19]: 13%
CC1=C(/C=C/C(C)=C/C=C/C(C)=C/C(=O)O)C(C)(C)CCC1 [CB16178, all-trans retinoic acid, reference compound]	–	–	–	7.3%	57.2%	46.9%	–	–	–	reduces the cellular growth and the expression of oestrogen-dependent genes	–	–	–	35%	28 to 44%	inhibit the cellular increase of the two mammary lineages at the concentrations tested	22 to 33%	inhibit the proliferation of the A549 lineage at 10^-6 M and 10^-8 M	activity at 0.01 µM ([1]; A549, 72 h): 78.8%; activity at 1 µM ([1]; A549, 72 h): 89.2%; activity at 100 µM ([1]; A549, 72 h): 22.3%
C/C(=C/c1ccc2c(c1)C(C)(C)CCC2(C)C)c1ccc(C(=O)O)nc1 [CB16279, (Z) 5-[1-(5,6,7,8-tetrahydro-5,5,8,8-tetramethyl-2-naphthalenyl)-2-propenyl]pyridinyl-2-carboxylic acid]	–	–	–	–	–	–	84%	32%	–	permit a transrepression of a controlled gene by an ERE	23 to 26%	–	–	–	–	–	–	–	–
CC1(C)CCC(C)(C)c2cc(/C=C(\c3ccc(-c4nnn[nH]4)cc3)C(F)(F)F)ccc21 [CB77402, (E) 5-[4-[1-trifluoromethyl-2-(5,6,7,8-tetrahydro-5,5,8,8-tetramethyl-2-naphthalenyl)-1-ethenyl]phenyl]-1H-tetrazole]	10.7%	86%	93.1%	7.5%	96.6%	99.9%	–	0%	–	inactive	30 to 33%	21 to 23%	anti-AP-1 molecules through RXR; also recorded: additive nature of the anti-AP-1 inhibitor effect	–	–	–	–	show activity on the increase of these two lineages	–
C/C(=C\c1ccc(C(=O)O)cc1)c1ccc2c(c1)C(C)(C)CCC2(C)C [TTNPB, reference compound]	–	–	–	15.7%	69.8%	60.6%	–	–	–	–	–	–	–	–	29 to 54%	inhibit the cellular increase of the two mammary lineages at the concentrations tested	26 to 53%	–	effect on oestrogen-induced growth, T-47D (in words) ([3]; estradiol 10^-9 M): stronger inhibiting effect than the natural ligands (all-trans RA and 9-cis RA) and than LGD1069; inhibition at 0.01 µM [4, 17]: 30 to 41%; anti-oestrogenic effect, inhibition (of the order of) ([4]; MELN, estradiol 10^-9 M): ~40%
